This passage reports fold induction results from patent publication US20260324636A1, “COMPOSITION FOR PROVIDING PLANT WITH STRESS RESISTANCE” (KIRIN HOLDINGS KABUSHIKI KAISHA, priority 2022, published 2026).

For one test, the system named is HSFA2. The experiment in a line: HSFA2 gene expression by real-time PCR, Example 5. The class given is in vivo. The conditions noted are these: Arabidopsis thaliana; 0.1 mM in medium, 2 hours after application, 22° C.; read-out: HSFA2 expression level, increase vs group not subjected to the treatment. The protocol: The materials as used in Example 1 were used.
The method as employed in Example 1 was employed.
N-acetylglutamic acid was applied to Arabidopsis thaliana 7 days after inoculation to the final concentration of 0.1 mM in the medium, followed by incubation for 2 hours or 6 hours. The incubator was maintained at a temperature of 22° C. for a daily cycle of 16 hours light and 8 hours darkness. After incubation, the samples were frozen with liquid nitrogen, and RNA was extracted using the RNeasy Plant Mini Kit (Thermo Fischer Scientific).
cDNA that would be necessary as a real-time PCR template was synthesized from the RNA obtained. 500 ng total RNA was used for each sample, and cDNA was synthesized using the Verso cDNA Synthesis Kit (Thermo Fischer Scientific). The synthesized cDNA was diluted to 5-fold with sterile distilled water and subjected to real-time PCR. For real-time PCR, a reaction solution containing HSFA2 (AGI code: AT2G26150) and HSP17.6C (AGI code: AT1G53540) as the target genes, ACTIN2 (AGI code: AT3G18780) as the reference gene, and TB Green Ex Taq II (TaKaRa) was prepared. PCR was performed with the use of the LightCycler® 480 System (Roche) with the number of amplification cycles of 50. […]
Thereafter, the relative expression level of the target genes upon N-acetylglutamic acid treatment were calculated by the ΔΔCt method using the Cp values obtained by real-time PCR.
On the technique in general: Quantitative PCR measures a nucleic acid by following its amplification.

In the next test the test system is OsHSFA2E. As to the kind of experiment: OsHSFA2E gene expression by real-time PCR, Example 6. The following applies: Oryza sativa; 0.5 mM in medium, 30° C. for 2 hours, aboveground part; read-out: OsHSFA2E expression level, increase vs control. The class given is in vivo, rice. The source says: In order to design primers for the target genes necessary for gene expression analysis by real-time PCR, homologs of Arabidopsis thaliana high-temperature-responsive genes in rice were searched for. The amino acid sequence of Arabidopsis thaliana HSFA2 (AGI code: AT2G26150) was obtained from TAIR (https://www.arabidopsis.org/), and the nucleotide sequence of the homolog was obtained using RAP-DB (https://rapdb.dna.affrc.go.jp/). As a reference gene, the nucleotide sequence of the homolog of Arabidopsis thaliana ACTIN2 (AGI code: AT3G18780) was also obtained. Homolog genes in rice were designated as OsHSFA2E and OsACT1, respectively.
The materials as used in Example 3 were used.
The method as employed in Example 3 was employed.
The rice samples subjected to germination for 3 days were inoculated into a liquid medium consisting of a ½ Murashige and Skoog Plant Salt Mixture. Specifically, a liquid medium was dispensed at 3 ml/well to a 12-well microplate (IWAKI), and 3 samples were transferred to each well. N-acetylglutamic acid was applied to each well to the final concentration of 0.5 mM in the medium, incubation was performed at 30° C. for 2 hours, and RNA was extracted from the aboveground part using the RNeasy Plant Mini Kit. […]
(§1) Thereafter, the relative expression level of the target gene upon N-acetylglutamic acid treatment was calculated by the ΔΔCt method.

A further test has as its system H1HSP17.6C. The experiment in a line: H1HSP17.6C gene expression by real-time PCR, Example 7. The class given is in vivo, hop. The conditions noted are these: 1 mM in medium, 20° C. for 2 hours, leaves; read-out: H1HSP17.6C expression level, increase vs control.
From the text: In order to design primers for the target genes necessary for gene expression analysis by real-time PCR, homologs of Arabidopsis thaliana high-temperature-responsive genes in hop were searched for. The amino acid sequences of Arabidopsis thaliana HSFA2 (AGI code: AT2G26150) and HSP17.6C (AGI code: AT1G53540) were obtained from TAIR (https://www.arabidopsis.org/), and the nucleotide sequences of the gene homologs were obtained using Hopbase (https://hopbase.cgrb.oregonstate.edu/). […] As the reference gene, the nucleotide sequence of the homolog of Arabidopsis thaliana EF1α (AGI code: AT1G18070) was obtained. The hop homolog genes were designated as H1HSFA2, H1HSP17.6C, and HIEF1α, respectively.
The materials as used in Example 4 were used.
The methods as employed in Example 4 were employed.
The leaves in the first and the second nodes from the apical buds of the tissue-cultured seedlings were sampled 1.5 months after the initiation of subculture and inoculated into a liquid medium consisting of a ½ Murashige and Skoog Plant Salt Mixture and 2 (w/v) % glucose. Specifically, a liquid medium was dispensed at 5 ml/well to a 6-well microplate (IWAKI), and 5 hop leaves were mounted thereon. […]
as §1

For the molecule `CC(=O)N[C@@H](CCC(=O)O)C(=O)O` [N-acetylglutamic acid], the fold induction at 100 µM in the test on HSFA2 was determined as 2.5. Also, the fold induction at 500 µM with OsHSFA2E came out at 1.4. Further, in the test with H1HSP17.6C, the fold induction at 1000 µM was found to be 1.8.
